Experimental data published in US7166612B2, “Methods for reducing platelet activation platelet aggregaton or thrombosis” (Beth Israel Deaconess Medical Center, priority 2001, dated 2007).

Legend:
[1] = tested on: PGE1-induced cAMP levels in platelets; experiment: augmentation of PGE1-induced cAMP levels in platelets; assay type: cell-based, human; settings: in words
Experimental: (A) Compound was tested for its ability to inhibit SFLLR-, U46619-, ADP-, PMA-, and collagen I-induced platelet α-granule secretion. (B) The effect of the compound on PGE1-stimulated cAMP elevation was analyzed. Platelets were incubated with increasing doses of pyridazinone compound for 30 minutes prior to the 2 minute incubation with PGE1. Platelets were subsequently lysed and cAMP level was assayed using a commercially available ELISA kit (Liao et al., 1998, Eur J Pharmacol 349, 107–14). […] Error bars represent mean ±1 SD (n=4), *P<0.001.
One frequent target of anti-platelet agents is phosphodiesterase III (PDE III). […] The assay is performed as described by Liao et al., 1998, Eur J Pharmacol 349,107–114, incorporated herein by reference. Briefly, aliquots of PRP are exposed to increasing concentrations of the agent for 20 minutes. The PRP is then challenged with 1 μM PGE1 for 2 min The reaction is stopped by adding 10 mM EDTA, followed immediately by boiling for 2 min. The mixture is cooled to 4° C. and the precipitated protein is pelleted. cAMP content in the supernatant is quantitated using an enzyme immunoassay kit (Pharmacia-Amersham, NJ) according to the instructions of the manufacturer.
In order to assess whether the compounds useful according to the invention might act through inhibition phosphodiesterase III, each was tested for its effect on PGE1-induced cAMP increase. Determination of platelet cAMP levels was performed as described by Liao et al., 1998, supra. Aliquots of PRP were exposed to increasing concentrations of the indicated compounds for 20 min. PRP was then challenged with 1 μM PGE1 for 2 min. The reaction was stopped with the addition of 10 mM EDTA followed immediately by boiling for 2 min. The mixture was then cooled to 4° C. and the precipitated protein was pelleted. Cyclic AMP content in the supernatant was then quantified using an enzyme immunoassay kit (Pharmacia-Amersham, NJ) according to the instructions of the manufacturer.

[2] = tested on: laser-induced thrombi in cremaster arterioles; assay type: in vivo
Source text: A preferred animal model involves intravital microscopy of laser-induced thrombi. The method is described by Rosen et al., 2001, Am J Pathol 158, 1613–1622, which is incorporated herein by reference. Minor variations of that method were employed as described below.
Experimental mice are pre-anesthetized and surgically prepared. A tracheal tube is placed to facilitate breathing and the jugular vein is canulated to allow for maintenance of anesthetic and introduction of compound. The cremaster muscle is then exteriorized. The muscle is affixed over a glass slide, allowing illumination from below. A steady drip of a sodium-bicarbonate buffered salt solution is maintained throughout the experiment to keep the exposed muscle moist. Blood flow in the muscle is visualized using a 40× water immersion lens and epi-illuminated with an appropriately filtered light source. Alexa 488-labeled anti-mouse CD41 antibody is injected through the jugular canulus to label platelets in vivo.
Thrombosis is initiated by damaging the vessel wall (of a 30 μm vessel) with a laser pulse from a MicroPoint LASER attached to the microscope. A LASER pulse is delivered, causing damage in an area smaller than 1 μm. The recruitment of platelets to the thrombus is then monitored by the accumulation of (activated) Alexa 488-labeled platelets at the ablation site using fluorescence microscopy, and the process is recorded digitally. The method thus permits in vivo analysis of platelet activation as measured by platelet aggregation and thrombosis.
The degree of embolization in an untreated mouse can be quantified using software for image analysis, e.g., BioQuant True Color Windows (Biometrics, Nashville, Tenn.), as described in Rosen et al., 2001, supra. The software package permits the determination of the “integrated optical density” or IOD of the thrombus.
Using quantitative intravital fluorescence videomicroscopy with high temporal resolution (111 images/second), the effect of PDE3 inhibition on the platelet recruitment into thrombi was directly observed over time. Platelets were fluorescently labeled by infusing rat-anti-mouse CD41 and Alexa 488-anti-rat IgG through a cannulated jugular vein. The cremaster microvasculature was exposed and mapped and suitable arteriole segments were selected for laser-induced injury. A series of control injuries were generated prior to infusion of the inhibitory compound. The power and the number of laser pulses required to generate each thrombus was recorded. Platelet accumulation to the thrombi following laser ablation was recorded using digital videomicroscopy. The thrombus total fluorescence in each frame of the videos was analyzed using Slidebook software for digital videomicroscopy. The pyridazinone compound was then infused. Following a 15 minute incubation, a series of experimental injuries were generated 250 μm proximal, with relationship to blood flow, of the first injury and the resultant thrombi were recorded. The power and the number of pulses required to induce the control thrombus was used to induce the experimental thrombus. The control and experimental thrombi constituting a pair were compared for statistical analysis. The total fluorescence intensity of the thrombi before and after the infusion of pyridazinone compound was recorded.
Images from a representative experiment of the recruitment of fluorescently-labeled […] platelets into a growing thrombus over time is shown in FIG. 9A.

human platelet PDE3 = target: T1, human platelet PDE3 (Homo sapiens, UniProt Q14432); experiment: phosphodiesterase inhibition, PDE3; assay type: biochemical
T1 construct: from tissue; host or cells: human platelets
T1 sequence (Q14432 whole entry): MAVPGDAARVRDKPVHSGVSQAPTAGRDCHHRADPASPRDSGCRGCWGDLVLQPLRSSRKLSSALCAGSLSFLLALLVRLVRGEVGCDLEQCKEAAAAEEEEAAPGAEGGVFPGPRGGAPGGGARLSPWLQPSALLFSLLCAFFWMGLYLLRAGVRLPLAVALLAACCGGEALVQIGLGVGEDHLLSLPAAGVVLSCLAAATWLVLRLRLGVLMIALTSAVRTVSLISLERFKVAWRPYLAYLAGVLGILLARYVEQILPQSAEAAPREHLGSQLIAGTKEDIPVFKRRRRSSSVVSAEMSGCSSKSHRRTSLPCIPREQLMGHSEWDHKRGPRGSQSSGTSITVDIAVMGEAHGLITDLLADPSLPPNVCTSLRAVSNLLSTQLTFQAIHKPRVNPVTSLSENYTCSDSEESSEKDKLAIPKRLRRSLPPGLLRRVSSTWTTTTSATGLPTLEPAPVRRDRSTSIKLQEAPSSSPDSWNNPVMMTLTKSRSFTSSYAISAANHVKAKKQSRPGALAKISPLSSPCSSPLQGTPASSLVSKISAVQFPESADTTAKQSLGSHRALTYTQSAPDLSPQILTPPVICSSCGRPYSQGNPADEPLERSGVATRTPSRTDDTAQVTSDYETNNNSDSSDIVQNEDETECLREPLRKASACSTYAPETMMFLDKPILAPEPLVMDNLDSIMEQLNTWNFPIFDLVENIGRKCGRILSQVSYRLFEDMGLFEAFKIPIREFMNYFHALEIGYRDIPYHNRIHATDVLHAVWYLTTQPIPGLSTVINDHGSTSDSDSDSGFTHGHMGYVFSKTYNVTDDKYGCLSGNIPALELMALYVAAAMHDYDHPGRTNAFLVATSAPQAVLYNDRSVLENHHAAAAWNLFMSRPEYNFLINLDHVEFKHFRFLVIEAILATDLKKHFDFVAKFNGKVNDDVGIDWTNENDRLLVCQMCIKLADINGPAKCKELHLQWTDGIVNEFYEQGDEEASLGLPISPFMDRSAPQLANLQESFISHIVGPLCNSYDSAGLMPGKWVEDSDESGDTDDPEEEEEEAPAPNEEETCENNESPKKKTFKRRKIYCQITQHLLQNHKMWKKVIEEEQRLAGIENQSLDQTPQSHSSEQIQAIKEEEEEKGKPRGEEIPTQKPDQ
Experimental: Intracellular cAMP generated by adenylyl cyclase in platelets is actively hydrolyzed by phosphodiesterase. […] Human platelets express PDE2, PDE3, and PDE5. Therefore, the compound was tested for its inhibitory effect on these phosphodiesterases using methods as described in Example 3.

## CC1CC(=O)NN=C1c1ccc(N)c([N+](=O)[O-])c1 (stereo not drawn) [6-(4-Amino-3-nitro-phenyl)-5-methyl-4,5-dihydro-2H-pyridazin-3-one]
[1]
  effect on PGE1-stimulated cAMP levels in platelets: augments PGE1-induced cAMP levels in a dose-dependent manner
[1]; listed as Pyridazinone compound
  effect on PGE1-stimulated cAMP levels in platelets: augment PGE1-induced cAMP level increase in platelets in a dose-dependent manner
[2]; 0.6 mg/kg (P<0.05) and 1.2 mg/kg (P<0.01), in words
  stabilized platelet accumulation: dose-dependent inhibition
[2]; 0.6 and 1.2 mg/kg, P<0.05, in words
  maximum platelet accumulation compared to absence of compound: statistically significant decrease
[2]; after laser injury, not affected by PDE3 inhibition, 0.3 and 1.2 mg/kg
  time to achieve the maximum rate of platelet recruitment: approximately 27 seconds
Human platelet PDE3
  IC50: 15 nM
